The values below come from US20250197372A1 (priority 2020, published 2025).

What all share (type): biochemical
Assay [1] addresses rat maltase (partially purified alpha-glucosidase from intestinal rat powder). Description: Intestinal alpha-glucosidase assay, maltose substrate (Glucose GO Kit). In a few lines: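 Enzyme from intestinal rat powder, partially purified, is exposed to compound for 60 min at 37 °C. Disaccharide substrate (maltose or sucrose respectively) then reacts 30 min at 37 °C. Heat-stopped samples are assayed for glucose, and percent inhibition versus concentration gives IC50 via 4-PL.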

In assay [2] the target is T1, recombinant human GBA (beta-glucocerebrosidase) (Homo sapiens, UniProt P04062).
T1 sequence (P04062 40-536): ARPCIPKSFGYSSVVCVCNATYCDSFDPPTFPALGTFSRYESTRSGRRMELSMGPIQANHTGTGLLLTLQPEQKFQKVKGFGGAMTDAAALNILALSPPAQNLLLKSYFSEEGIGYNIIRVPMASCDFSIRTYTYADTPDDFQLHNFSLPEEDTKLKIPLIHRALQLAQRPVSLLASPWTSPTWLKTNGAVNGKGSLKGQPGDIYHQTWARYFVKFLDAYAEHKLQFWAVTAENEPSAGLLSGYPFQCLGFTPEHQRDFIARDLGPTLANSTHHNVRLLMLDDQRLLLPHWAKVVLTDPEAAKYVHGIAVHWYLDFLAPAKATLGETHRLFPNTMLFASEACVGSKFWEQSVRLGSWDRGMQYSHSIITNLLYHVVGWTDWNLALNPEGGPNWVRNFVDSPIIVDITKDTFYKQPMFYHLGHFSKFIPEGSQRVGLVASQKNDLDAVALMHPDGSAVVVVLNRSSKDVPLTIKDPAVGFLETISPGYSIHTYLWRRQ
Nature of the assay: Beta-glucocerebrosidase (GBA, glucosylceramidase) assay (4-methylumbelliferyl-beta-D-pyranoside substrate, fluorescence). The essentials: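 Recombinant human GBA preincubated with compound dilutions 60 min at 37 °C, then 4-methylumbelliferyl-beta-D-pyranoside added for 60 min at 37 °C. Stopped at pH 10 (glycine/NaOH); fluorescence ex 365/em 440 nm. IC50 from 4-PL fit of inhibition relative to untreated enzyme.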

Assay [3] has as its target rat sucrase (partially purified alpha-glucosidase from intestinal rat powder) (Rattus norvegicus, UniProt P23739). Nature of the assay: Intestinal alpha-glucosidase assay, sucrose substrate (Glucose GO Kit). The essentials: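 Rat intestinal enzyme prep + test cpd dilutions, 60 min 37 °C; add maltose (maltase) or sucrose (sucrase), 30 min 37 °C; stop 90 °C 5 min. Glucose readout (glucose oxidase kit). IC50 from 4-PL fit of % inhibition vs conc.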

The structures appear in SMILES notation.

rat sucrase (partially purified alpha-glucosidase from intestinal rat powder), sequence (P23739 whole entry): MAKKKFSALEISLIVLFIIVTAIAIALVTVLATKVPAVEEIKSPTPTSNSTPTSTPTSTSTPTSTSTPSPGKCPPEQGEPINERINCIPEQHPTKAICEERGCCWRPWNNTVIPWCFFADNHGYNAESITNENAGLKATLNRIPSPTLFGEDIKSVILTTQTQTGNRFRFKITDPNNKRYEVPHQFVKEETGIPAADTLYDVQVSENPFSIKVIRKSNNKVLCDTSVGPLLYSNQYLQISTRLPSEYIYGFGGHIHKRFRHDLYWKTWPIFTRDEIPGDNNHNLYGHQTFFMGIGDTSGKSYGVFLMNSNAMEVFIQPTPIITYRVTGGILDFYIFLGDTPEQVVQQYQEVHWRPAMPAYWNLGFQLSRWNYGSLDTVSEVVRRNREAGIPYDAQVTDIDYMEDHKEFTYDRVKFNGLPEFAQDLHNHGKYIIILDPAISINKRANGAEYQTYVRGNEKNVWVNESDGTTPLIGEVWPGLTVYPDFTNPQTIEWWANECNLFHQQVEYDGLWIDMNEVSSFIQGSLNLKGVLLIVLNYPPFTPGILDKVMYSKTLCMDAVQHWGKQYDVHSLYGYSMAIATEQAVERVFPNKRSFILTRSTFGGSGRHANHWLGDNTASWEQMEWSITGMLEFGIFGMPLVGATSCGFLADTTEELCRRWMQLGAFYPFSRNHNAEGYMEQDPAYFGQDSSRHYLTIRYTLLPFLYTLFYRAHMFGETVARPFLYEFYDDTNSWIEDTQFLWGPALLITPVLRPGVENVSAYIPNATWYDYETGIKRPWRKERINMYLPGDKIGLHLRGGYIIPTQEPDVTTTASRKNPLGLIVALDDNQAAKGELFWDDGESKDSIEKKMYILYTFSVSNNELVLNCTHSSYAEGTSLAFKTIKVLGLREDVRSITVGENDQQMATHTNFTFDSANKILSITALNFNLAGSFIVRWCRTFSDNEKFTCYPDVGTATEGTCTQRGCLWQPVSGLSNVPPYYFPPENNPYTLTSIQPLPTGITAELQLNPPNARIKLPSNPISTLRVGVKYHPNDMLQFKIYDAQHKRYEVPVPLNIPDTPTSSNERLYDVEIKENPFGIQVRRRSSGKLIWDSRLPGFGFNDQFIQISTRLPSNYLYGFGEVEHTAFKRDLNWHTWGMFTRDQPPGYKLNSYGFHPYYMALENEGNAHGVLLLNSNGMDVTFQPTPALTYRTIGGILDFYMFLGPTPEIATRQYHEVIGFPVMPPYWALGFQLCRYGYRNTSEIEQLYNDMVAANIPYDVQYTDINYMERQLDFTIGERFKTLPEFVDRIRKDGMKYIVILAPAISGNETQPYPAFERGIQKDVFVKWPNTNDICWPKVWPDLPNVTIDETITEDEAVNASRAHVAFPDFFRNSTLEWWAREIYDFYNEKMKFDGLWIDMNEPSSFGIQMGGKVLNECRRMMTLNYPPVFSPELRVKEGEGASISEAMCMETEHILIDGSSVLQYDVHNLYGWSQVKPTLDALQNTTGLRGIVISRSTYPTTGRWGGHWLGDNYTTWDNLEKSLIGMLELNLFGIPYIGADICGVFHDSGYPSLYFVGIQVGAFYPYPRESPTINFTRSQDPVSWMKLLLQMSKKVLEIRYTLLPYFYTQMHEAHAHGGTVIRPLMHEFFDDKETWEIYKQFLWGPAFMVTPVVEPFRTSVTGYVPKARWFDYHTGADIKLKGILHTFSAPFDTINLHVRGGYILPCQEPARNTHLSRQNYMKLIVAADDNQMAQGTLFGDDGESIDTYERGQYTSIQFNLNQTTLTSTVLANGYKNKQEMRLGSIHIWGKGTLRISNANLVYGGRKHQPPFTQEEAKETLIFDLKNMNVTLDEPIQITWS

As usually defined, the IC50 is the midpoint of a concentration-inhibition curve. As to `Cc1cc(NCc2ccc(CN3C[C@H](O)[C@@H](O)[C@H](O)[C@H]3CO)cc2)cc(N2CCOCC2)c1` [Compound 1048, (2R,3R,4R,5S)-2-(hydroxymethyl)-1-{[4-({[3-methyl-5-(morpholin-4-yl)phenyl]amino}methyl)phenyl]methyl}piperidine-3,4,5-triol], the IC50 in assay [1] was 0.013 µM; in assay [2] it was above 100 µM; in assay [3], 0.059 µM.

For `OC[C@@H]1[C@@H](O)[C@H](O)[C@@H](O)CN1Cc1ccc(CNc2ccc(C3=COCCO3)cc2)cc1` [Compound 1093, (2R,3R,4R,5S)-1-{[4-({[4-(5,6-dihydro-1,4-dioxin-2-yl)phenyl]amino}methyl)phenyl]methyl}-2-(hydroxymethyl)piperidine-3,4,5-triol], the IC50 in assay [1] was 0.002 µM; in assay [2] it was 7.48 µM; in assay [3] it was 0.007 µM.

On to `OC[C@@H]1[C@@H](O)[C@H](O)[C@@H](O)CN1Cc1cccc(CNc2ccc(C3=COCCO3)cc2)c1` [Compound 1066, (2R,3R,4R,5S)-1-{[3-({[4-(5,6-dihydro-1,4-dioxin-2-yl)phenyl]amino}methyl)phenyl]methyl}-2-(hydroxymethyl)piperidine-3,4,5-triol], for which the IC50 in assay [1] is 0.041 µM; in assay [2] it was above 100 µM; in assay [3], 0.026 µM.

For `Cc1cc(CN2CCOCC2)cc(NCCCCCCN2C[C@H](O)[C@@H](O)[C@H](O)[C@H]2CO)c1` [Compound 1003, (2R,3R,4R,5S)-2-(hydroxymethyl)-1-[6-({3-methyl-5-[(morpholin-4-yl)methyl]phenyl}amino)hexyl]piperidine-3,4,5-triol], the IC50 in assay [1] turned out to be 0.021 µM; in assay [2] it was 7.68 µM; in assay [3] it was 0.382 µM.

Consider `O=[N+]([O-])c1cc(-c2cccnn2)ccc1NCCc1ccc(CCN2C[C@H](O)[C@@H](O)[C@H](O)[C@H]2CO)cc1` [Compound 1109, (2R,3R,4R,5S)-2-(hydroxymethyl)-1-{2-[4-(2-{[2-nitro-4-(pyridazin-3-yl)phenyl]amino}ethyl)phenyl]ethyl}piperidine-3,4,5-triol], for which the IC50 in assay [1] came to 0.001 µM; in assay [2] it was 6.55 µM; in assay [3] it was 0.446 µM.

For `CN(Cc1ccc(CN2C[C@H](O)[C@@H](O)[C@H](O)[C@H]2CO)cc1)c1cc(-c2cccnn2)cc(C2CC2)c1` [Compound 1001, (2R,3R,4R,5S)-1-{[4-({[3-cyclopropyl-5-(pyridazin-3-yl)phenyl](methyl)amino}methyl)phenyl]methyl}-2-(hydroxymethyl)piperidine-3,4,5-triol], the values for the 50% inhibitory concentration (IC50) in assay [1], in assay [2] and in assay [3] were below 0.001 µM, 99.7 µM and 0.015 µM, respectively.

As for `O=[N+]([O-])c1cc(-c2ncccn2)ccc1NCc1cccc(CN2C[C@H](O)[C@@H](O)[C@H](O)[C@H]2CO)c1` [Compound 1090, (2R,3R,4R,5S)-2-(hydroxymethyl)-1-{[3-({[2-nitro-4-(pyrimidin-2-yl)phenyl]amino}methyl)phenyl]methyl}piperidine-3,4,5-triol], the half-inhibitory concentration (IC50) came to 0.034 µM in assay [1], 32.4 µM in assay [2] and 0.002 µM in assay [3].

Turning to `O=[N+]([O-])c1cc(-c2ncccn2)ccc1NCCc1ccc(CCN2C[C@H](O)[C@@H](O)[C@H](O)[C@H]2CO)cc1` [Compound 1111, (2R,3R,4R,5S)-2-(hydroxymethyl)-1-{2-[4-(2-{[2-nitro-4-(pyrimidin-2-yl)phenyl]amino}ethyl)phenyl]ethyl}piperidine-3,4,5-triol], the IC50 is below 0.001 µM in assay [1], 1.79 µM in assay [2] and 0.773 µM in assay [3].

Turning to `O=[N+]([O-])c1cc(CN2CCCO2)ccc1NCCc1ccc(CCN2C[C@H](O)[C@@H](O)[C@H](O)[C@H]2CO)cc1` [Compound 1108, (2R,3R,4R,5S)-2-(hydroxymethyl)-1-(2-{4-[2-({2-nitro-4-[(1,2-oxazolidin-2-yl)methyl]phenyl}amino)ethyl]phenyl}ethyl)piperidine-3,4,5-triol], the IC50 is 0.098 µM in assay [1], 6 µM in assay [2] and 0.908 µM in assay [3].

For `N#Cc1cc(NCc2cccc(CN3C[C@H](O)[C@@H](O)[C@H](O)[C@H]3CO)c2)cc(-c2ncccn2)c1` [Compound 1047, 3-(pyrimidin-2-yl)-5-{[(3-{[(2R,3R,4R,5S)-3,4,5-trihydroxy-2-(hydroxymethyl)piperidin-1-yl]methyl}phenyl)methyl]amino}benzonitrile], the figures for the half-inhibitory concentration (IC50) in assay [1], in assay [2] and in assay [3] were below 0.001 µM, 87.3 µM and 0.011 µM, respectively.

In the case of `N#Cc1cc(NCc2cccc(CN3C[C@H](O)[C@@H](O)[C@H](O)[C@H]3CO)c2)cc(-c2cccnn2)c1` [Compound 1046, 3-(pyridazin-3-yl)-5-{[(3-{[(2R,3R,4R,5S)-3,4,5-trihydroxy-2-(hydroxymethyl)piperidin-1-yl]methyl}phenyl)methyl]amino}benzonitrile], the figures for the IC50 in assay [1], in assay [2] and in assay [3] were 0.006 µM, 87.3 µM and 0.052 µM, respectively.

For the compound `OC[C@@H]1[C@@H](O)[C@H](O)[C@@H](O)CN1Cc1cccc(CNc2ccc(-c3ccc[nH]3)cc2)c1` [Compound 1082, (2R,3R,4R,5S)-2-(hydroxymethyl)-1-{[3-({[4-(1H-pyrrol-2-yl)phenyl]amino}methyl)phenyl]methyl}piperidine-3,4,5-triol], the figures for the IC50 in assay [1], in assay [2] and in assay [3] were 0.014 µM, 13.8 µM and 0.025 µM, respectively.

With `COc1cc(Br)cc(NCCn2cc(CCN3C[C@H](O)[C@@H](O)[C@H](O)[C@H]3CO)c3ccccc32)c1` [Compound 1075, (2R,3R,4R,5S)-1-[2-(1-{2-[(3-bromo-5-methoxyphenyl)amino]ethyl}-1H-indol-3-yl)ethyl]-2-(hydroxymethyl)piperidine-3,4,5-triol], the IC50 in assay [1] came to 0.238 µM; in assay [2], 2.52 µM; in assay [3] it was 0.722 µM.

With `OC[C@@H]1[C@@H](O)[C@H](O)[C@@H](O)CN1Cc1cccc(CNc2ccc(-c3ncccn3)cc2)c1` [Compound 1084, (2R,3R,4R,5S)-2-(hydroxymethyl)-1-{[3-({[4-(pyrimidin-2-yl)phenyl]amino}methyl)phenyl]methyl}piperidine-3,4,5-triol], the IC50 in assay [1] is 0.095 µM; in assay [2] it was above 100 µM; in assay [3], 0.044 µM.

Take `N#Cc1cc(NCc2ccc(CN3C[C@H](O)[C@@H](O)[C@H](O)[C@H]3CO)cc2)cc(-c2ncccn2)c1` [Compound 1065, 3-(pyrimidin-2-yl)-5-{[(4-{[(2R,3R,4R,5S)-3,4,5-trihydroxy-2-(hydroxymethyl)piperidin-1-yl]methyl}phenyl)methyl]amino}-benzonitrile]: the IC50 in assay [1] is 0.003 µM; in assay [2] it was 32.1 µM; in assay [3], 0.037 µM.

Take `OC[C@@H]1[C@@H](O)[C@H](O)[C@@H](O)CN1Cc1cccc(CNc2ccc(N3CCOCC3)cc2)c1` [Compound 1081, (2R,3R,4R,5S)-2-(hydroxymethyl)-1-{[3-({[4-(morpholin-4-yl)phenyl]amino}methyl)phenyl]methyl}piperidine-3,4,5-triol]: the IC50 is 0.11 µM in assay [1], above 100 µM in assay [2] and 0.161 µM in assay [3].

Consider `O=[N+]([O-])c1cc(-c2ncccn2)ccc1NCc1ccc(CN2C[C@H](O)[C@@H](O)[C@H](O)[C@H]2CO)cc1` [Compound 1102, (2R,3R,4R,5S)-2-(hydroxymethyl)-1-{[4-({[2-nitro-4-(pyrimidin-2-yl)phenyl]amino}methyl)phenyl]methyl}piperidine-3,4,5-triol], for which the IC50 in assay [1] is below 0.001 µM; in assay [2] it was 28.7 µM; in assay [3], below 0.001 µM.

As for `O=[N+]([O-])c1cc(-c2ncc[nH]2)ccc1NCCc1ccc(CCN2C[C@H](O)[C@@H](O)[C@H](O)[C@H]2CO)cc1` [Compound 1078, (2R,3R,4R,5S)-2-(hydroxymethyl)-1-{2-[4-(2-{[4-(1H-imidazol-2-yl)-2-nitrophenyl]amino}ethyl)phenyl]ethyl}piperidine-3,4,5-triol], the 50% inhibitory concentration (IC50) in assay [1] came to 0.028 µM; in assay [2], 6.97 µM; in assay [3], 0.506 µM.
